In article PMC5773580, “A synthetic combinatorial approach to disabling deviant Hedgehog signaling” (Scientific Reports, 2018):
Where “and” joins values, the source holds several entries; their conditions need not be identical. Equal values may be shown once.

Key:
[1] = target: T1, HDAC9 (Homo sapiens, UniProt Q9UKV0); assay: In vitro HDAC profiling (deacetylation assay), HDAC9; assay type: biochemical; conditions: for HDAC Activity (Fluorescent counts): Repeat1/Repeat 2
T1 construct: purchased BPS Bioscience #50051-11
Experimental: (§1) HDAC profiling was performed at BPS Bioscience (San Diego, CA). All of the compounds are dissolved in DMSO. A series of dilutions of the compounds were prepared with 10% DMSO in HDAC assay buffer (#50031) and 5 µl of the dilution was added to a 50 µl reaction so that the final concentration of DMSO is 1% in all of reactions. All of the enzymatic reactions were conducted in duplicate at 37 °C for 30 mins, except that the enzyme reactions for HDAC11 were at room temperature for 3 hrs. All of the reactions were performed in a 50 µl mixture containing HDAC assay buffer, 5 µg BSA, an HDAC substrate [HDAC Substrate 3 (BPS number 50037) or HDAC Class 2a Substrate 1 (BPS number 50040)], an HDAC enzyme (#50051-11) and a test compound. After enzymatic reactions, 50 μl of HDAC Developer (#50030) was added to each well and the plate was incubated at room temperature for an additional 20 mins. Fluorescence intensity was measured at an excitation of 360 nm and an emission of 460 nm using a Tecan Infinite M1000 microplate reader. HDAC activity assays were performed in duplicates at each concentration. The fluorescent intensity data were analyzed using the computer software, Graphpad Prism. In the absence of the compound, the fluorescent intensity (Ft) in each data set was defined as 100% activity. In the absence of HDAC, the fluorescent intensity (Fb) in each data set was defined as 0% activity. The percent activity in the presence of each compound was calculated according to the following equation: %activity = (F − Fb)/(Ft − Fb), where F = the fluorescent intensity in the presence of the compound. The values of % activity versus a series of compound concentrations were then plotted using non-linear regression analysis of Sigmoidal dose-response curve generated with the equation Y = B + (T − B)/1 + 10((LogIC50 − X) × Hill Slope), where Y = percent activity, B = minimum percent activity, T = maximum percent activity, X = logarithm of compound and Hill Slope = slope factor or Hill coefficient. The IC50 value was determined by the concentration causing a half-maximal percent activity.

[2] = test system: SHH-induced GLI activity (GLI-BS reporter) in NIH3T3; assay: HH pathway reporter (GLI-BS reporter) assay, +Shh in NIH3T3; assay type: cell-based; conditions: Mus musculus; +Shh in NIH3T3, 48 hrs with compound
Experimental: (§2) The HH-responsive firefly luciferase reporter (GLI-BS) and a control Renilla luciferase reporter (SV40-RL) were transfected into indicated cell lines using Effectene (Qiagen) either alone or with indicated DNAs. 24 hrs after transfection, cells were switched to low serum media (3% calf serum), and grown for another 48 hrs. in 5% CO2 in the presence/absence of compounds. 3T3-ShhFL cell line that stably expressing SHH and the two reporters were cultured in a similar fashion. FL and RL activities in lysate generated using Passive Lysis Buffer (Promega) were then assessed using the Dual-Luciferase kit (Promega) and a 96-well plate reading luminometer (BMG). The ratio of FL/RL was calculated and the averaged ratios from three replicates were reported.

[3] = target: T2, HDAC4 (Homo sapiens, UniProt P56524); assay: In vitro HDAC profiling (deacetylation assay), HDAC4; assay type: biochemical; conditions: for HDAC Activity (Fluorescent counts): Repeat1/Repeat 2
T2 construct: purchased BPS Bioscience #50051-11
Experimental: as §1

[4] = test system: nuclear HDAC activity (Ac-H3) in NIH-3T3 cells; assay: Acetylation assay, Western blotting for acetylated histone 3 (Ac-H3); assay type: cell-based; conditions: 48hrs, Western blot
Experimental: For analyzing acetylation status of histone 3 and tubulin, NIH3T3 cells were grown to confluence in 6-well plates. After 48hrs of treatment with indicated chemicals, cells were lysed in RIPA buffer or 1% NP40/phosphate buffered saline/protease inhibitors (SIGMA, #S8820), the lysate cleared using a microcentrifuge, then 6 × sample loading buffer (Bioland Scientific) added to the supernatant. Proteins were separated on SDS-PAGE (BioRad Criterion TGX Precast Gels). Antibodies used for analyzing the blots were: acetylated tubulin (SIGMA, #T6793), tubulin, acetyl-histone H3 (Lys23), and histone H3 (Cell Signaling Technology, #2125 S, #8848 and #9717, respectively). Chemiluminescence was detected using a Li-COR Odyssey Imaging System.

[5] = test system: SMO-M2 in NIH3T3 (GLI-BS reporter); assay: GLI-BS reporter assay, NIH3T3 cells with SMO-M2 DNA; assay type: cell-based; conditions: Mus musculus
Experimental: as §2

[6] = in vitro deacetylation assay, duplicates

T1 sequence (Q9UKV0 whole entry): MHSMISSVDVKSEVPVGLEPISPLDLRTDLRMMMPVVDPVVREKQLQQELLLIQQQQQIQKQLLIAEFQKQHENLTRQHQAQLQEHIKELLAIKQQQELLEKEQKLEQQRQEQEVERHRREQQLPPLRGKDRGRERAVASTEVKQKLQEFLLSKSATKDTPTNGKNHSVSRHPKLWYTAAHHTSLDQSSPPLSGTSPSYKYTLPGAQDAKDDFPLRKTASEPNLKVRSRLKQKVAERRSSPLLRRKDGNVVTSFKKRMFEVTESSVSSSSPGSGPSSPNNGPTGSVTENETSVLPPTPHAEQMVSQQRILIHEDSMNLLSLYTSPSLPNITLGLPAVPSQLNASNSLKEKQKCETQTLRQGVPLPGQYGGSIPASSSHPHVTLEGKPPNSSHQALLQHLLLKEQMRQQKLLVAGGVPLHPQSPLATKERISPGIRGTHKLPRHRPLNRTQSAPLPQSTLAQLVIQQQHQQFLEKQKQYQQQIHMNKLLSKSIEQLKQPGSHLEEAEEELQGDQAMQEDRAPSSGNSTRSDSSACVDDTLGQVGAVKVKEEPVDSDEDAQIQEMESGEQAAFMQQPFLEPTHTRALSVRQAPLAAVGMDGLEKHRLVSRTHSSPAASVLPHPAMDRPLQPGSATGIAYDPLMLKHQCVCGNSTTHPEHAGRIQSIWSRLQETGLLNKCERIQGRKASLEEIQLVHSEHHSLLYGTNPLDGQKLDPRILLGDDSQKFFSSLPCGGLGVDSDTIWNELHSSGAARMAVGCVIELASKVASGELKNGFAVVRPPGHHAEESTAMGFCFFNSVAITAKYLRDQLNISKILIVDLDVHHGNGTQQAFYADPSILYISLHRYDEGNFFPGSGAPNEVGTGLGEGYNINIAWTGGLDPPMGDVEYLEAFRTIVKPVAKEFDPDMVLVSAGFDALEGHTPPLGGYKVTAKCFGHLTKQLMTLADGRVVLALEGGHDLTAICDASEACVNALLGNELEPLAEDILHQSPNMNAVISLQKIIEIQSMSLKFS
T2 sequence (P56524 whole entry): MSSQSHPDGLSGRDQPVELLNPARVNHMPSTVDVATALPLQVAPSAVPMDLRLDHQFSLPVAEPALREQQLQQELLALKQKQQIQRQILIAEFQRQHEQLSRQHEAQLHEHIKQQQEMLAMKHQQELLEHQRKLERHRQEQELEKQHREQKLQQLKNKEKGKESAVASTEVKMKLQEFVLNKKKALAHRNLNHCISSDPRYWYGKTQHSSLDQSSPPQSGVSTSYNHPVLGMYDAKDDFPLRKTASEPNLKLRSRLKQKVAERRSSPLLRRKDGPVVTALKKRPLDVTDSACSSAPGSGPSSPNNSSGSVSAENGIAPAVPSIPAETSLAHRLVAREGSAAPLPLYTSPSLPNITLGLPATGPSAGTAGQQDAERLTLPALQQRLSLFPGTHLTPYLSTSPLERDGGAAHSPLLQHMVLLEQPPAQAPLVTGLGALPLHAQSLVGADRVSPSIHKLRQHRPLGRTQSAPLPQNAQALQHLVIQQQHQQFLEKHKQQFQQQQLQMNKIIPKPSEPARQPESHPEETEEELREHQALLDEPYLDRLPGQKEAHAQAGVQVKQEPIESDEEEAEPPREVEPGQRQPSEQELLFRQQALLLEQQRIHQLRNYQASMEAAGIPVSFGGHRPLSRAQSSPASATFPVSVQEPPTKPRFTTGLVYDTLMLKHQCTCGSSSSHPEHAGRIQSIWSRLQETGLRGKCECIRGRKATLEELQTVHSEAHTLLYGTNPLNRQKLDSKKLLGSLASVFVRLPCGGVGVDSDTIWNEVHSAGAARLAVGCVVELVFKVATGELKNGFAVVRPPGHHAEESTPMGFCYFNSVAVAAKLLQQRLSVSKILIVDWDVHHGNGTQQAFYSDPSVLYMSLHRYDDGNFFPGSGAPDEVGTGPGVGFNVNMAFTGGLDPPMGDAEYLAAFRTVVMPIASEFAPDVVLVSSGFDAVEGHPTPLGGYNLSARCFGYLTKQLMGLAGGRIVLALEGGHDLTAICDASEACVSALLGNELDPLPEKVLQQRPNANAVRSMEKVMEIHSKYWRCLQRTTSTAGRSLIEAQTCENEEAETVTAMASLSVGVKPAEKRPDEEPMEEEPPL

**Q.** With `O=C(CCCCCCC(=O)Nc1ccc(Cl)c(C(=O)Nc2ccc(NC(=O)c3cc(Cl)ccc3Cl)cc2)c1)NO` [IHR-SAHA] as the compound, how does the “HDAC Activity (Fluorescent counts)” value ([1]; HDAC9, WW01 0 Log nM) read?
**A.** 15707 Fluorescent counts and 17505 Fluorescent counts

**Q.** What about the “HDAC Activity (Fluorescent counts)” value ([1]; HDAC9, WW01 0.5 Log nM) of the same compound?
**A.** 15735 Fluorescent counts and 16677 Fluorescent counts

**Q.** And the “HDAC Activity (Fluorescent counts)” value ([1]; HDAC9, WW01 1 Log nM)?
**A.** 15823 Fluorescent counts and 16968 Fluorescent counts

**Q.** What about the “HDAC Activity (Fluorescent counts)” value ([1]; HDAC9, WW01 1.5 Log nM) of the same compound?
**A.** 15598 Fluorescent counts and 16390 Fluorescent counts

**Q.** What about the “HDAC Activity (Fluorescent counts)” value ([1]; HDAC9, WW01 2 Log nM) of the same compound?
**A.** 15941 Fluorescent counts and 16116 Fluorescent counts

**Q.** What about the “HDAC Activity (Fluorescent counts)” value ([1]; HDAC9, WW01 2.5 Log nM) of the same compound?
**A.** 14685 Fluorescent counts and 15111 Fluorescent counts

**Q.** What about the “HDAC Activity (Fluorescent counts)” value ([1]; HDAC9, WW01 3 Log nM) of the same compound?
**A.** 14898 Fluorescent counts and 14972 Fluorescent counts

**Q.** And the “HDAC Activity (Fluorescent counts)” value ([1]; HDAC9, WW01 3.5 Log nM)?
**A.** 13364 Fluorescent counts and 15040 Fluorescent counts

**Q.** What about the “HDAC Activity (Fluorescent counts)” value ([1]; HDAC9, WW01 4 Log nM) of the same compound?
**A.** 14972 Fluorescent counts and 13303 Fluorescent counts

**Q.** And the “HDAC Activity (Fluorescent counts)” value ([1]; HDAC9, WW01 -0.5 Log nM)?
**A.** 15619 Fluorescent counts and 16563 Fluorescent counts

**Q.** And the IC50 [1, 6]?
**A.** > 10000 nM

**Q.** And the IC50 [2]?
**A.** 3 nM

**Q.** What about the “HDAC Activity (Fluorescent counts)” value ([3]; HDAC4, WW01 0 Log nM) of the same compound?
**A.** 34281 Fluorescent counts and 35156 Fluorescent counts

**Q.** And the “HDAC Activity (Fluorescent counts)” value ([3]; HDAC4, WW01 0.5 Log nM)?
**A.** 35257 Fluorescent counts and 33365 Fluorescent counts

**Q.** And the “HDAC Activity (Fluorescent counts)” value ([3]; HDAC4, WW01 1 Log nM)?
**A.** 34132 Fluorescent counts and 32561 Fluorescent counts

**Q.** What about the “HDAC Activity (Fluorescent counts)” value ([3]; HDAC4, WW01 1.5 Log nM) of the same compound?
**A.** 32307 Fluorescent counts and 33171 Fluorescent counts

**Q.** What about the “HDAC Activity (Fluorescent counts)” value ([3]; HDAC4, WW01 2 Log nM) of the same compound?
**A.** 34170 Fluorescent counts and 33741 Fluorescent counts

**Q.** And the “HDAC Activity (Fluorescent counts)” value ([3]; HDAC4, WW01 2.5 Log nM)?
**A.** 30594 Fluorescent counts and 30410 Fluorescent counts

**Q.** And the “HDAC Activity (Fluorescent counts)” value ([3]; HDAC4, WW01 3 Log nM)?
**A.** 29955 Fluorescent counts and 29639 Fluorescent counts

**Q.** And the “HDAC Activity (Fluorescent counts)” value ([3]; HDAC4, WW01 3.5 Log nM)?
**A.** 26541 Fluorescent counts and 27641 Fluorescent counts

**Q.** And the “HDAC Activity (Fluorescent counts)” value ([3]; HDAC4, WW01 4 Log nM)?
**A.** 24902 Fluorescent counts and 23203 Fluorescent counts

**Q.** And the “HDAC Activity (Fluorescent counts)” value ([3]; HDAC4, WW01 -0.5 Log nM)?
**A.** 34466 Fluorescent counts and 34397 Fluorescent counts

**Q.** What about the IC50 [3, 6] of the same compound?
**A.** > 10000 nM

**Q.** What about the “HDAC inhibitory activity, accumulation of acetylated histone 3 (ratio Ac-H3 to total H3)” value [4] of the same compound?
**A.** retain HDAC inhibitory activity

**Q.** And the IC50 [5]?
**A.** 80 nM
